# Active and inactive are the calls of the source. The calls are words filed in the database; no cut-off is given here.
# Tested on: Hep 3B2
# Assay: Antitumor activity against human Hep3B cells xenografted in nude mouse model assessed as upregulation of caspase-3 expression at 5 mg/kg,ip administered every second day for 3 weeks by Western blot analysis
# Assay type: functional, organism-based
smiles,measurement,value
C[C@]12CC[C@H](O)C[C@H]1CC[C@@H]1[C@@H]2[C@H](O)C[C@]2(C)[C@@H](c3ccc(=O)oc3)CC[C@]12O [GAMABUFOTALIN],Activity,Active

# From ChEMBL document CHEMBL5257089, “Gamabufotalin Induces Apoptosis and Cytoprotective Autophagy through the mTOR Signaling Pathway in Hepatocellular Carcinoma” (J Nat Prod, 2023)
